Values joined by “and” are separate entries in the source; they are usually repeats but may differ in a detail not shown here. Equal entries are not always repeated.

The values below come from paper PMC5743070 (The Journal of Biological Chemistry, 2017).

The target of test [1] is T1, TTD (UHRF1_121–286) (Homo sapiens, UniProt Q96T88).
T1 construct: UHRF1_121–286 corresponding to the TTD; made in house
T1 sequence (Q96T88 121-286): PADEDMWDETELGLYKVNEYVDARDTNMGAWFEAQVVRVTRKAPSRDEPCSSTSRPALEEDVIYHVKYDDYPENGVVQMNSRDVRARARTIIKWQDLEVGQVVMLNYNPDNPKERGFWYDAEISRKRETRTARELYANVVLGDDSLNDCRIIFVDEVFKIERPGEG
In words: ITC of BPC binding to TTD. How it is done:
For ITC measurements of TTD–PHD (UHRF1_126–366) interaction with H3K9me3, samples were dialyzed into a buffer containing 10 mM HEPES (pH 7.5), 150 mM NaCl, 1 mM TCEP, and 30 μM ZnCl2. […] A preliminary peptide injection of 0.06 μl was followed by subsequent 2-μl injections into the sample cell containing 167 μl of 50 μM TTD–PHD. Where indicated, 1.5 mM BPC or 1.5 mM PBR peptide was included in the injection syringe and sample cell. The reported KD and n values are based on the average from two measurements. For ITC measurements of TTD (UHRF1_121–286) interaction with BPC, the protein was buffered in 20 mM Tris (pH 7.4), 50 mM NaCl, and 5% DMSO. BPC was brought to a concentration of 2.5 mM and injected into the sample cell containing 40 μM protein. The data were acquired on a Nano ITC from TA Instruments at 25 °C and fitted with an independent-binding site model using NanoAnalyze software (v3.7.0). […]
Binding of BPC in the groove of TTD.
labeled (at the N-terminus) H3K9me3(1-25) peptide, (B) ITC, and (C) DSF. […]

In test [2] the target is T1, TTD (UHRF1_121–286). Briefly: (1H-15N) HSQC NMR titration of TTD. The test is classed as binding. The note with it: for Kd: HSQC titration, ~250 μM TTD, 5% DMSO, pH 7.5, 25 °C. An excerpt: We designed a fragment library containing 2,040 compounds that was initially screened against isolated TTD (UHRF1_121–286) using a fluorescence polarization (FP) assay that tracked the displacement of a N-terminally tagged H3K9me3 peptide (H3K9me3(1–25)). From this screen, eight putative TTD-binding hits were identified. […] Because of limited commercial availability of the tricyclic amine, we focused only on BPC. The binding of this compound occurs close to (or within) the Arg^296-binding pocket; we observe significant perturbation of Trp^238 and Phe^278 resonances that form part of the pocket, and in Gly^236, which is directly adjacent to it (Fig. 4A and supplemental Fig. S5). We also see chemical shift changes in non-surface exposed residues that are close to or are in contact with the groove.
NMR samples were buffered in 20 mM sodium phosphate (pH 7.5), 150 mM NaCl, 5 mM DTT, 5 mM β-mercaptoethanol, 2 mM TCEP, and 10 μM ZnSO4. The protein concentration was between 200 and 300 μM for all samples. The data were collected at 25 °C on Bruker spectrometers equipped with cryoprobes and operating at 500, 600, or 800 MHz. The assignment of backbone TTD–PHD resonances was accomplished using the ABACUS method ([29]) for which standard backbone and ^15N-edited NOESY spectra were collected using ^15N/^13C/^2H- or ^15N/^13C-labeled protein. All 3D experiments were acquired using non-uniform sampling and processed using the software MDDGUI ([30]) or qMDD ([31]). ^15N-Labeled TTD–PHD was used to acquire ^15N T1 and T2 relaxation and ^1H-^15N heteronuclear NOE measurements ([32]) collected using standard Bruker pulse schemes in an interleaved manner. For T1 measurements, the variable delay was set to 0.1, 0.4, 0.8, 1.5, 2.0, 2.5, 3.5, and 5 s. For T2 measurements, the variable delay was set to 16, 32, 48, 64, 80, 96, 128, and 144 ms. The D1 was 3 s for all experiments. Reported values were the average from two measurements. All spectra were processed using NMRPipe ([33]) and analyzed with SPARKY ([34]).
Figure S5 (related to Fig. 4)
Binding of BPC in the groove of TTD. […]
labeled (at the N-terminus) H3K9me3(1-25) peptide, (B) ITC, and (C) DSF. (D) KD estimates of BPC bind-ing based on I211 and Y239 amide peak movement (where Δ(ppm) = ((ΔδHN)2 + (ΔδN/6.5)2 )1⁄2) in (1H-15N) HSQC spectra when the TTD is titrated with BPC. […]
as a function of TTD sequence resulting from BPC (blue) or PBR peptide (red) binding. (F) HSQC overlays […]
ment:protein), and PBR peptide ratios (bottom spectrum - from 1:1 to 5:1 peptide:protein). The protein con-centration was ~250 µM for all NMR experiments, and the DMSO concentration was 5% for NMR titrations […]
(1 picture or pasted object on this page, not shown here)

Setting [3] is: ITC, 2.5 mM BPC into 40 μM TTD, pH 7.4, 5% DMSO, 25 °C.

With `N=C(N)N1CCC(Cc2ccccc2)CC1` [BPC, 4-benzylpiperidine-1-carboximidamide], the equilibrium dissociation constant (Kd) (in general, the constant that tells how readily two partners part at equilibrium) was 46 µM in test [1] (ITC, 2.5 mM BPC into 40 μM TTD, 20 mM Tris pH 7.4, 50 mM NaCl, 5% DMSO, 25 °C, independent-binding site model, read-out: KD); 50 µM and ~50 µM in test [1] (isolated TTD, estimated using ITC and DSF, read-out: estimated KD); 78 µM in test [2] (residue I211, read-out: KD estimate from I211 amide peak movement); 76 µM in test [2] (residue Y239, read-out: KD estimate from Y239 amide peak movement). Also, the “H (enthalpy of binding, ITC)” value in test [1] (setting [3]) is -2.6 kcal/mol. Also, the “S (entropy of binding, ITC)” value in test [1] (setting [3]) is 11.0 cal/mol∙K. Moreover, the “calculated ligand efficiency (binding energy per heavy atom)” value in test [1] (calculated from KD for TTD) was 0.38. The “binding site on TTD by amide peak movement” value in test [2] ((1H-15N) HSQC spectra of TTD) is recorded as “occurs in the groove”.
